Measurements as given in patent US20230312528A1, “2-OXO-IMIDAZOLIDINE-4-CARBOXAMIDES AS NAV1.8 INHIBITORS” (Merck Sharp & Dohme LLC, priority 2020, published 2023).
Several values for one entry are separate records, joined by “and”; a condition that tells them apart may be missing. Equal values may be shown once.

biological target: human NaV1.8 (Homo sapiens (Human), UniProt Q9Y5Y9); assay: Nav1.8 Qube automated patch-clamp assay; type: cell-based; settings: human NaV1.8 stably expressed in HEK 293 cells; automated 384-well patch-clamp; resting or inactivated state not specified
Sequence (Q9Y5Y9 whole entry): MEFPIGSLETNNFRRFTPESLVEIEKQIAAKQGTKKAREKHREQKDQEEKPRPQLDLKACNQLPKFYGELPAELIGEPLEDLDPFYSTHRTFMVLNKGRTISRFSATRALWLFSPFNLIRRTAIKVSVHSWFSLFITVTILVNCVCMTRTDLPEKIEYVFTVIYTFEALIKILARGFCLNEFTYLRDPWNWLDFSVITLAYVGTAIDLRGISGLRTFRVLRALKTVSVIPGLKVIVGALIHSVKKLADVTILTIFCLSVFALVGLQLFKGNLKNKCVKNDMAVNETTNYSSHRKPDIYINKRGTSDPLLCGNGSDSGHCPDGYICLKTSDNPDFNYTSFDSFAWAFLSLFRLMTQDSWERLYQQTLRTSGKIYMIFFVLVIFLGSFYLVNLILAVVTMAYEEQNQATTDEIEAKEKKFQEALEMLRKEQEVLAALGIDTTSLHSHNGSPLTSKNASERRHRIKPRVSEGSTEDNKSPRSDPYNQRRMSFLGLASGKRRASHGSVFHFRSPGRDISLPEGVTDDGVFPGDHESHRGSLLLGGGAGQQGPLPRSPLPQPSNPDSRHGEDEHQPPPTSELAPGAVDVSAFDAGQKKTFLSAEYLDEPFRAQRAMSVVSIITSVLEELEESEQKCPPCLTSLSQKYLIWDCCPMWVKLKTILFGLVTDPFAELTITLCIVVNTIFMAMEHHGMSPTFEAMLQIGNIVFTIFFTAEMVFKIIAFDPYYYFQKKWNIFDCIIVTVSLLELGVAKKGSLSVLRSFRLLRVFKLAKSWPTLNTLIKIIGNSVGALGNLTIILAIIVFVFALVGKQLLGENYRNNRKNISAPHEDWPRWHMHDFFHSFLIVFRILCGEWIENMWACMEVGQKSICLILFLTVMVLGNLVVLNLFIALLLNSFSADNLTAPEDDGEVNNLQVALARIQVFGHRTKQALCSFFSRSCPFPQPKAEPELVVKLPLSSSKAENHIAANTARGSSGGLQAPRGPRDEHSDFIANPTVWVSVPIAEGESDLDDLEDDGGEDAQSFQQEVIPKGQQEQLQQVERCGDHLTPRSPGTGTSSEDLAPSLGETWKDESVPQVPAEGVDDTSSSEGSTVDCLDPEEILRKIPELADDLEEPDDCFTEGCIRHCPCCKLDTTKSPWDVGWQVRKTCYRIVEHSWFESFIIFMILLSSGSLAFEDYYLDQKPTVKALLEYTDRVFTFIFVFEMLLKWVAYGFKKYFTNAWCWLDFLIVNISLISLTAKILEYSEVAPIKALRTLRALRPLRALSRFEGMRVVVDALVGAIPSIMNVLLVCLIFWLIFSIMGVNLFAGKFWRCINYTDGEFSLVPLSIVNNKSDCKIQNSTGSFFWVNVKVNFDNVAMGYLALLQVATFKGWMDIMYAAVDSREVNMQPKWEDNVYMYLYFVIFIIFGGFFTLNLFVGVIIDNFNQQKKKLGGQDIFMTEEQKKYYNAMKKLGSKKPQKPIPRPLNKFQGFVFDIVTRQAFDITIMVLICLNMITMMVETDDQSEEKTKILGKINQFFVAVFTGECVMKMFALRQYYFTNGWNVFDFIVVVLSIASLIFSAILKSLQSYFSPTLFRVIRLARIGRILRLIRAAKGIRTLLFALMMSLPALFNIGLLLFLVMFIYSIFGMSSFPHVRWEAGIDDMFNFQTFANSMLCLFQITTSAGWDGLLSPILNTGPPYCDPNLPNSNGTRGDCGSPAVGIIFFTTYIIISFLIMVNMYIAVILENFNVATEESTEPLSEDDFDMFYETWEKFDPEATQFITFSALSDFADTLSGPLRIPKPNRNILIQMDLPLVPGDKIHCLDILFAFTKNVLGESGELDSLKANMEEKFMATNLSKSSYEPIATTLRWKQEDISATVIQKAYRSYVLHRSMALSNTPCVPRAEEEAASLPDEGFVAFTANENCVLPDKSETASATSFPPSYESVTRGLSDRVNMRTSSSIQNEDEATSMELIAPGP
Description: Compounds were tested on human NaV1.8 and NaV1.5 channels stably expressed in human embryo kidney (HEK) 293 cells. Sodium current measurements on Qube® were conducted as follows: automated 384-well patch-clamp assays on the Qube® platform (Sophion Biosciences) were used to measure the inhibition of sodium flow through human NaV1.8 and NaV1.5 channels. Whole-cell voltage-clamp recordings were performed in QChips® (Sophion Biosciences) at room temperature. NaV1.8 current measurements on Qube® were obtained as follows: NaV1.8 currents were elicited with a 10 second 1 Hertz (Hz) pulse train from a holding potential of −90 millivolts (mV), delivered to the cells once per minute in the control condition (DMSO only) and after compound addition. The 1 hertz pulse train stimulation consisted of ten test pulses to 10 millivolt (mV) for 20 milliseconds (ms), each of which was followed by a 980 millisecond repolarization to −67 millivolts. At the end of the 10 second pulse train stimulation, a 5 second hyperpolarization step to −100 millivolt (mV) was used to recover NaV1.8 from fast inactivation. The peak currents elicited by the 1st and 10th test pulses were used to determine IC50 values for resting inhibition and inactivated state inhibition. NaV1.5 current measurements on Qube® were obtained as follows: NaV1.5 currents were elicited with a 20 second 3 Hertz pulse train in the control condition (DMSO only) and after compound addition. The pulse train consisted of sixty 20 millisecond test pulses to 0 millivolt from a holding potential of −80 millivolt (mV). The average peak currents elicited by the last 3 test pulses were used to determine IC50 values for NaV1.5 inhibition.
The following buffers were used for the Qube® recordings: External buffer for NaV1.8 Qube® recording: 150 NaCl, 2 CaCl2, 5 KCl, 1 Mg Cl2, 10 HEPES, 12 Dextrose; External buffer for Qube® NaV1.5 recording: 120 N-Methyl-D-Glucamine, 40 NaCl, 1 KCl, 2.7 CaCl2, 5 HEPES, 0.5 MgCl2; and Internal buffer for Qube® recording: 120 CsF, 30 CsCl, 10 EGTA, 5 HEPES, 5 NaF, 2 MgCl2.
For all Qube® experiments offline analysis was used to determine percent inhibition as a function of drug concentration. IC50 values were determined by fitting to the Hill equation.

| SMILES | IC50 |
| --- | --- |
| O=C1NC[C@@H](C(=O)NC(c2ccc(F)c(Cl)c2F)C23CC(C(F)(F)F)(C2)C3)N1 (single isomer, unassigned) [Example 27A, (4S)—N—((R or S)-(3-chloro-2,4-difluorophenyl)(3-(trifluoromethyl)bicyclo[1.1.1]pentan-1-yl)methyl)-2-oxoimidazolidine-4-carboxamide] | 5.8 nM |
| O=C1NC[C@@H](C(=O)NC(c2ccc(Cl)cc2)c2ccc(F)c(C(F)(F)F)c2)N1 (single isomer, unassigned) [Example 17B, (S)-N-((R or S)-(4-chloropehnyl)(4-fluoro-3-(trifluoro-methyl)phenyl)methyl)-2-oxoimidazolidine-4-carboxamide] | 7 nM |
| O=C1NC[C@@H](C(=O)NC(c2ccc(Cl)cc2)c2cnc(C(F)(F)F)[nH]2)N1 (single isomer, unassigned) [Example 22A, (S)—N—((R or S)-(4-chlorophenyl)(2-(trifluoromethyl)-1H-imidazol-4-yl)methyl)-2-oxoimidazolidine-4-carboxamide] | 373 nM |
| O=C1NC[C@@H](C(=O)NC(COC2CCC(F)(F)CC2)c2ccc(F)c(Cl)c2)N1 (single isomer, unassigned) [Example 29A, (4S)-N-{1-((R or S)-3-chloro-4-fluorophenyl)-2-[(4,4-difluoro-cyclohexyl)oxy]ethyl}-2-oxoimidazolidine-4-carboxamide] | 110 nM |
| O=C1NC[C@@H](C(=O)NC(c2ccc(OCC(F)(F)F)nc2)c2ccc(F)c(Cl)c2F)N1 (single isomer, unassigned) [Example 33B, (S)—N—((R or S)-(3-chloro-2,4-difluorophenyl)(6-(2,2,2-trifluoroethoxy)pyridin-3-yl)methyl)-2-oxoimidazolidine-4-carboxamide] | 39 nM |
| O=C1NC[C@@H](C(=O)NC(c2cnc(C(F)(F)F)nc2)c2ccc(F)c(Cl)c2F)N1 (single isomer, unassigned) [Example 48, (S)-N-((R or S)-(3-chloro-2,4-difluorophenyl)(2-(trifluoromethyl)pyrimidin-5-yl)methyl)-2-oxoimidazolidine-4-carboxamide] | 16 nM |
| CC1(C)CC(C(NC(=O)[C@@H]2CNC(=O)N2)c2ccc(Cl)cc2)CCN1CC(F)(F)F (single isomer, unassigned) [Example 91D, (4S)—N—((R or S)(4-chlorophenyl)((R or S)2,2-dimethyl-1-(2,2,2-trifluoroethyl)piperidin-4-yl)methyl)-2-oxoimidazolidine-4-carboxamide] | 458 nM |
| CN1CC(C(=O)NC(c2ccc(Cl)cc2)c2ccc(Cl)cc2)NC1=O (single isomer, unassigned) [Example 10B, (R or S)-N-[bis(4-chlorophenyl)methyl]-1-methyl-2-oxoimidazolidine-4-carboxamide] | 504 nM |
| O=C1NC[C@@H](C(=O)NC(c2cnc(OCC(F)(F)F)s2)c2ccc(F)c(Cl)c2F)N1 (single isomer, unassigned) [Example 35B, (S)-N-((R or S)-(3-chloro-2,4-difluorophenyl)(2-(2,2,2-trifluoroethoxy)thiazol-5-yl)methyl)-2-oxoimidazolidine-4-carboxamide] | 64 nM |
| O=C1NC[C@@H](C(=O)NC(c2ccc(OC(F)(F)F)c(Cl)c2)c2ccnc(C(F)(F)F)n2)N1 (single isomer, unassigned) [Example 49B, (S)-N-((R or S)-3-chloro-4-(trifluoro-methoxy)phenyl)(2-(trifluoromethyl)pyrimidin-4-yl)methyl)-2-oxoimidazolidine-4-carboxamide] | 6.8 nM |
| N#Cc1ccc(C(NC(=O)[C@@H]2CNC(=O)N2)c2ccc(Cl)c(C(F)(F)F)c2)cc1 (single isomer, unassigned) [Example 60B, (S)-N-((R or S)-(4-chloro-3-(trifluoromethyl)-phenyl)(4-cyanophenyl)-methyl)-2-oxo-imidazolidine-4-carboxamide] | 3.8 nM |
| N#Cc1cccc(C(NC(=O)[C@@H]2CNC(=O)N2)c2ccc(F)c(Cl)c2)n1 (single isomer, unassigned) [Example 12B, (4S)-N-[((R or S)-3-chloro-4-fluorophenyl)(6-cyanopyridin-2-yl)methyl]-2-oxoimidazolidine-4-carboxamide] | 1420 nM |
| O=C1NC[C@@H](C(=O)NC(c2ccc(Cl)cc2)c2ccn3nccc3c2)N1 (single isomer, unassigned) [Example 80A, (S)—N—((R or S)-(4-chlorophenyl)(pyrazolo[1,5-a]pyridin-5-yl)methyl)-2-oxoimidazolidine-4-carboxamide] | 100 nM |
| O=C1NC[C@@H](C(=O)NC(c2cnc(C3CC3)c(Cl)c2)c2ccc(F)c(Cl)c2F)N1 (single isomer, unassigned) [Example 13B, (4S)-N-[((R or S)-5-chloro-6-cyclo-propylpyridin-3-yl)(3-chloro-2,4-difluoro-phenyl)methyl]-2-oxoimidazolidine-4-carboxamide] | 38 nM |
| O=C1NC[C@@H](C(=O)NC(CC2CCC(C(F)(F)F)CC2)c2ccc(F)c(Cl)c2F)N1 (single isomer, unassigned) [Example 23A, (S)—N—((R or S)-1-(3-chloro-2,4-difluorophenyl)-2-((cis or trans)-4-(trifluoromethyl)cyclohexyl)ethyl)-2-oxoimidazolidine-4-carboxamide] | 15 nM |
| CN1CCC(C(NC(=O)[C@@H]2CNC(=O)N2)c2ccc(F)c(Cl)c2F)CC1C(F)(F)F (single isomer, unassigned) [Example 78D, (S)-N-((R or S)-(3-chloro-2,4-difluoro-phenyl)((cis or trans)-1-methyl-2-(trifluoro-methyl)piperidin-4-yl)methyl)-2-oxoimidazolidine-4-carboxamide] | 4660 nM |
| O=C1NC[C@@H](C(=O)NC(c2cnc(OCC(F)(F)F)c(F)c2)c2ccc(F)c(C(F)(F)F)n2)N1 (single isomer, unassigned) [Example 46B, (S)-N-((R or S)-(5-fluoro-6-(2,2,2-trifluoroethoxy)pyridin-3-yl)(5-fluoro-6-(trifluoromethyl)pyridin-2-yl)methyl)-2-oxoimidazolidine-4-carboxamide] | 27 nM and 6 nM |
| O=C1NC[C@@H](C(=O)NC(c2ccc(F)c(C(F)F)n2)c2ccc(F)c(Cl)c2F)N1 (single isomer, unassigned) [Example 63A, (S)-N-((R or S)-(3-chloro-2,4-difluorophenyl)(6-(difluoromethyl)-5-fluoropyridin-2-yl)methyl)-2-oxoimidazolidine-4-carboxamide] | 4.2 nM |
| O=C1NC[C@@H](C(=O)NC(c2cnc(C(F)(F)F)c(F)c2)c2ccc(F)c(Cl)c2F)N1 (single isomer, unassigned) [Example 44, (S)-N-((R or S)-(3-chloro-2,4-difluoro-phenyl)(5-fluoro-6-(trifluoromethyl)pyridin-3-yl)methyl)-2-oxoimidazolidine-4-carboxamide] | 3.1 nM |
| CC1(C(=O)NC(c2ccc(Cl)cc2)c2ccc(Cl)cc2)NC(=O)NC1=O (single isomer, unassigned) [Example 20A, (R or S)—N-(bis(4-chlorophenyl)methyl)-4-methyl-2,5-dioxoimidazolidine-4-carboxamide] | 19200 nM |
| O=C1NC[C@@H](C(=O)NC(c2ccc(F)c(Cl)c2F)C2COC(C(F)(F)F)C2)N1 (single isomer, unassigned) [Example 79C, (S)-N-((R or S)-(3-chloro-2,4-difluoro-phenyl)((cis or trans)-5-(trifluoromethyl)tetrahydrofuran-3-yl)methyl)-2-oxoimidazolidine-4-carboxamide] | 886 nM |
| O=C1NC[C@@H](C(=O)NC(c2ccc(OC(F)(F)F)nc2)c2ccc(F)c(C(F)(F)F)n2)N1 (single isomer, unassigned) [Example 45B, (S)-N-((R or S)-(5-fluoro-6-(trifluoro-methyl)pyridin-2-yl)(6-(trifluoromethoxy)pyridin-3-yl)methyl)-2-oxoimidazolidine-4-carboxamide] | 125 nM |
| O=C1NC[C@@H](C(=O)NC(c2ccc(OC(F)(F)F)cc2)c2ccc(F)c(C(F)(F)F)n2)N1 (single isomer, unassigned) [Example 7A, (S)—N—((R or S)-(5-fluoro-6-(trifluoromethyl)pyridin-2-yl)(4-(trifluoromethoxy)phenyl)-methyl)-2-oxoimidazolidine-4-carboxamide] | 1.1 nM |
| O=C1NC[C@@H](C(=O)NC(c2cnc(OC(F)F)c(F)c2)c2ccc(F)c(Cl)c2F)N1 (single isomer, unassigned) [Example 42, (S)-N-((R or S)-(3-chloro-2,4-difluorophenyl)(6-(difluoromethoxy)-5-fluoropyridin-3-yl)methyl)-2-oxoimidazolidine-4-carboxamide] | 190 nM |
